Two molecules from patent US11718624B2, “Solid state forms of substituted pyrazolopyrimidines and uses thereof” (KSQ Therapeutics, Inc., priority 2020, dated 2023) can be followed below.

The nature of this data set: Mouse pharmacokinetic study, single oral dose, plasma. Type of data set: in vivo, NOD/SCID mice. Conditions: single PO dose 300 mg/kg, plasma, 300 mg/kg. The method, then:
Mouse pharmacokinetic (PK) studies were conducted using Crystalline Form A of 6-(4-cyclopropyl-6-methoxypyrimidin-5-yl)-1-(4-(1-isopropyl-4-(trifluoromethyl)-1H-imidazol-2-yl)benzyl)-1H-pyrazolo[3,4-d]pyrimidine, as disclosed herein, Crystalline Form 2 of a gentisic acid co-crystal of 6-(4-cyclopropyl-6-methoxypyrimidin-5-yl)-1-(4-(1-isopropyl-4-(trifluoromethyl)-1H-imidazol-2-yl)benzyl)-1H-pyrazolo[3,4-d]pyrimidine, as disclosed herein, and Crystalline Form 8 of a benzoic acid co-crystal of 6-(4-cyclopropyl-6-methoxypyrimidin-5-yl)-1-(4-(1-isopropyl-4-(trifluoromethyl)-1H-imidazol-2-yl)benzyl)-1H-pyrazolo[3,4-d]pyrimidine, as disclosed herein.
The PK studies consisted of single dose oral exposure studies, which were conducted in female NOD/SCID mice (approximately 6 to 8 weeks, and 20-30 g at the time of study) using a compound dose of 300 mg/kg and a dosing volume of 10 mL/kg. The mice were fasted overnight prior to dosing. Animals had free access to food and water post-dosing.
Blood was sampled serially from the dorsal metatarsal vein at pre-dose, 0.25, 0.5, 1, 2, 4, 8, 24, 48 (crystalline Form 2 only), and 72 hours (crystalline Form 2 only) post PO dosing. Approximately 0.03 mL blood was collected at each time point and centrifuged at 4000 G for 5 minutes at 4° C. to provide plasma. The plasma samples were then stored in a freezer at −75±15° C. prior to LC-MS/MS analysis.
Concentrations of each compound in the plasma samples were then analyzed using an LC-MS/MS method. WinNonlin (Phoenix™, version 6.1) or other similar software was used for PK calculations. The following PK parameters were calculated, whenever possible from the plasma concentration versus time data: Cmax, Tmax, T1/2, AUCinf, and AUClast. The PK data were described using descriptive statistics such as mean with standard deviation.
Mouse pharmacokinetic (PK) studies were conducted using Crystalline Form 8 of 6-(4-cyclopropyl-6-methoxypyrimidin-5-yl)-1-(4-(1-isopropyl-4-(trifluoromethyl)-1H-imidazol-2-yl)benzyl)-1H-pyrazolo[3,4-d]pyrimidine, as disclosed herein.
Blood was sampled serially from the dorsal metatarsal vein at pre-dose, 0.25, 0.5, 1, 2, 4, 8, and 24 hours post PO dosing. Approximately 0.03 mL blood was collected at each time point and centrifuged at 4000 G for 5 minutes at 4° C. to provide plasma. The plasma samples were then stored in a freezer at −75±15° C. prior to LC-MS/MS analysis.
Concentrations of compound in the plasma samples were then analyzed using an LC-MS/MS method. WinNonlin (Phoenix™, version 6.1) or other similar software was used for PK calculations. The following PK parameters were calculated, whenever possible from the plasma concentration versus time data: Cmax, Tmax, T1/2, AUCinf, and AUClast. The PK data were described using descriptive statistics such as mean with standard deviation.

The mark [1] stands for this setting: female, NOD/SCID, mouse, po, Mouse 11.
The mark [2] stands for this setting: female, NOD/SCID, mouse, po, Mouse 12.

Read-outs that look alike come from different tables or passages of the source.

Take `COc1ncnc(C2CC2)c1-c1ncc2cnn(Cc3ccc(-c4nc(C(F)(F)F)cn4C(C)C)cc3)c2n1` [Crystalline Form 8, 6-(4-cyclopropyl-6-methoxypyrimidin-5-yl)-1-(4-(1-isopropyl-4-(trifluoromethyl)-1H-imidazol-2-yl)benzyl)-1H-pyrazolo[3,4-d]pyrimidine]: the Cmax (Mean, female NOD/SCID mice) was found to be 14770 ng/mL; the Cmax (female, NOD/SCID, mouse, po, Mouse 10, read-out: Cmax) is 8810 ng/mL; the peak concentration (Cmax) (female, NOD/SCID, mouse, po, Mouse 11, read-out: Cmax) worked out at 18200 ng/mL; the Cmax (female, NOD/SCID, mouse, po, Mouse 12, read-out: Cmax) was found to be 17300 ng/mL. The same molecule returned a T1/2 (Mean, female NOD/SCID mice) of 6.8 h. In addition, the Tmax by setting is: (Mean, female NOD/SCID mice) 3.50 h; (female, NOD/SCID, mouse, po, Mouse 10, read-out: Tmax) 8 h; (female, NOD/SCID, mouse, po, Mouse 11, read-out: Tmax) 0.5 h; (female, NOD/SCID, mouse, po, Mouse 12, read-out: Tmax) 2 h. For the setting “Mean, female NOD/SCID mice, sampling to 24 h (to 72 h for Form 2)”, this molecule returned an AUClast of 182.045 µg·h/mL. Moreover, the exposure AUC(0-t) by setting is: (female, NOD/SCID, mouse, po, Mouse 10) 145 µg·h/mL; under setting [1], 168 µg·h/mL; under setting [2], 233 µg·h/mL. The half-life is 11.4 h under setting [1] and 2.08 h under setting [2].

Take `COc1ncnc(C2CC2)c1-c1ncc2cnn(Cc3ccc(-c4nc(C(F)(F)F)cn4C(C)C)cc3)c2n1` [Crystalline Form A, 6-(4-cyclopropyl-6-methoxypyrimidin-5-yl)-1-(4-(1-isopropyl-4-(trifluoromethyl)-1H-imidazol-2-yl)benzyl)-1H-pyrazolo[3,4-d]pyrimidine]: the Tmax (Mouse 9) was determined as 4.00 h and the Tmax (female, NOD/SCID, mouse, po, Mouse 7, read-out: Tmax) is 8 h. Moreover, for the setting “female, NOD/SCID, mouse, po, Mouse 8”, the half-life is 6.79 h.

The term Cmax denotes the highest concentration seen after dosing. The term Tmax denotes the time from dosing to the highest level. One may read the AUC(0-t) as exposure summed from dosing to a finite time, without extrapolation to infinity. Low readings indicate low exposure, high ones high exposure. What is called half-life is the time needed for the level to fall by half in the phase considered. Low values mean rapid decline, high ones slow decline.
